Laboratory results as given in patent US20180216113A1, “METHODS FOR REDUCING PROTEOTOXICITY” (priority 2015, published 2018).

Columns and labels:
[1] = tested on: hsp-16.2p::GFP; assay: hsp-16.2p::GFP reporter induction (cytosolic HSR / MCSR); format: in vivo, C. elegans; conditions: for hsp-6 RNAi-induced MCSR (hsp-16.2p::GFP): ceramide fed worms, 100μg/ml, 48 hours, on hsp-6 RNAi
Protocol: (§1) Bacterial feeding of RNAi experiments was conducted during adulthood to exclude target genes' function during developmental stages. Synchronized eggs were harvested by bleaching and nematodes were grown on plates with E. coli OP50 until they reached early adulthood before they were transferred to RNAi plates. Day 1 adult worms were then grown on the RNAi plates with E. coli HT115 that carried the RNAi construct for 3 days at 20° C. Worms were imaged using a fluorescent microscope for green fluorescent protein (GFP) induction or applied to COPAS Biosorter (Union Biometrica) to quantify the level of GFP induction. The temperature-sensitive sterile strains were grown at 15° C. until they were gravid adults. Then, the cohorts were shifted to 25° C. Day 1 adult worms were transferred to RNAi plates for 2 days before images were taken. For the double RNAi treatment, E. coli carrying the indicated RNAi constructs are mixed 1:1 ratio.
(§2) Lipids, Inc. Lyophilized lipids were dissolved in Methanol with sonication. Ceramides were diluted to 100μg/ml and spotted on top of the OP50 plates or RNAi plates. Worms were transferred to Ceramide-spotted plates at L4 stage and the images were taken after 48 hours. Cardiolipin was fed to bacteria for 2-4 hours (OP50 or RNAi construct-carrying HT115) with final concentration of 100μg/ml. Then the bacteria were spotted on plates before transferring the worms. L4 worms were then transferred to the cardiolipin spotted plates and images were taken after 48 hours.
Worms were grown up to day 1 adults and underwent heat shock at 34° C. for 2 hours, then recovered at 20° C. for overnight before taking images. For the Nile Red Staining experiment, worms were recovered for 48 hours.
(§3) Perhexiline (Sigma) powder was dissolved in dimethylsulfoxide (DMSO) (100 mM). The stock was diluted to 1 mM and 100 μl was spotted on the E. coli OP50 plates or HT115 RNAi plates and dried before transferring the worms. Worms were transferred to new perhexiline plates every other day for three to four days until harvested for following experiment. […]

[2] = tested on: hsp-6p::GFP; assay: hsp-6p::GFP / hsp-60p::GFP reporter induction (UPRmt); format: in vivo, C. elegans; conditions: for UPRmt caused by cco-1 knockdown: ceramide fed reporter worms
Protocol: as §1, §2
(§4) Perhexiline (Sigma) powder was dissolved in dimethylsulfoxide (DMSO) (100 mM). The stock was diluted to 1 mM and 100 μl was spotted on the E. coli OP50 plates or HT115 RNAi plates and dried before transferring the worms. Worms were transferred to new perhexiline plates every other day for three to four days until harvested for following experiment. For the perhexiline treatment with multiple numbers of RNAi (e.g., FIG. 4C), worms were transferred to the S-media containing HT115 RNAi bacteria, 100 μM of perhexiline and 1 mM of IPTG in a 96-well plate for 48 hrs.

[3] = tested on: polyglutamine repeats in Huntingtin exon 1 (Q78); assay: Filter trap assay of polyQ aggregates in human primary fibroblasts; format: cell-based; conditions: perhexiline 400 nM, 48 hours
Protocol: The following siRNAs were tested for depleting the indicated genes in the human primary fibroblasts or HEK cells: hspa9 siRNA (#1 and #2), accl siRNA (#1 and #2), fas siRNA (#1 and #2) (Ambion). Scrambled siRNA with no known mammalian homology (non-targeting siRNA #1 (Ambion) was used as negative control. Double siRNA treatment was performed by mixing two different siRNAs indicated at 1:1 ratio. Cells were transfected with the siRNAs using JetPrime according to the manufacturer's manual and then harvested after 48 h. Control vector-transfected cells were used as controls for all the experiments.
100μg of protein samples were applied on to cellulose acetate membrane with 0.22 μm pore size (Schlechtes+Schule), assembled in vacuum slot blotter (Bio-Dot, Bio-Rad). Membrane was washed with 0.2% SDS five times on the blotter and subjected to antibody incubation for detecting aggregated protein retained on the membrane. Briefly, membrane was incubated with anti-GFP antibody (1:3000 dilution in 5% milk in PBS, Roche) overnight in a cold room. Membrane was washed with PBST (PBST with 0.05% Tween-20) for three times, then incubated with secondary antibody (donkey anti-mouse antibody conjugated with HRP, 1:5000 dilution in 5% milk in PBS, Jackson Immuno Research). […]

[4] = tested on: human primary fibroblasts; assay: Triglyceride content of human primary fibroblasts; format: cell-based; conditions: human primary fibroblasts (GFP expressing cells) after perhexiline treatment
Protocol: (§5) To quantify triglyceride content, a Triglyceride quantification kit (Bio Vision) was used according to the manufacturer's protocol. Briefly, worms were harvested from plates and washed with M9 three times. Worms were homogenized with 5% NP-40 in water using a glass dounce homogenizer to extract mostly the intestinal tissues by checking the lysates under a dissecting microscope. Worms looked like empty shells once the intestinal tissues were extracted out. The samples were heated slowly at 90° C. for 5 minutes and cooled down to room temperature. Heating was repeated once more prior to centrifugation of the samples for 2 minutes to bring down debris. Supernatant was removed and mixed with enzymes provided in the kit according to the manufacturer's manual. Measurement was done using microplate reader M1000 (TECAN) at Ex/Em=535/590 nm. Calculations were done after subtracting 0 standard readings as a background.
For the mammalian cell culture samples, cells were washed with cold PBS and homogenized with 5% NP-40 in water using a syringe with 22 G needle, followed by the procedure shown above. All experiments were done with three biological repeats.
For the cell culture experiments, cells were grown to 90% confluent and washed with PBS. Indicated concentrations of perhexiline were diluted in the cell growth media with serum and replaced in cell culture dishes. […]

[5] = tested on: C. elegans; assay: Triglyceride quantification in worms; format: in vivo; conditions: perhexiline treated worms
Protocol: as §5
Sample Triglyceride control (C)=B/V×D nmol/μl or mM
as §3

[6] = tested on: C. elegans; assay: Oxygen consumption rate of whole worms (Seahorse); format: in vivo; conditions: perhexiline treatment of hsp-6 RNAi animals
Protocol: Oxygen consumption of whole worms was measured using the Seahorse XF96 (Seahorse Bioscience). Worms were washed off from plates with M9 to remove residual bacteria. Then, 50 worms (10 worms/well/100 μl) were transferred to the microplate. 50 μl of M9 was added to the wells and the oxygen consumption rate was measured. All experiments were repeated at least three times.

[7] = tested on: cytosolic HSP70; assay: Western blotting of cytosolic HSP70 in human primary fibroblasts; format: cell-based; conditions: human primary fibroblasts (GFP expressing cells)
Protocol: The following siRNAs were tested for depleting the indicated genes in the human primary fibroblasts or HEK cells: hspa9 siRNA (#1 and #2), accl siRNA (#1 and #2), fas siRNA (#1 and #2) (Ambion). Scrambled siRNA with no known mammalian homology (non-targeting siRNA #1 (Ambion) was used as negative control. Double siRNA treatment was performed by mixing two different siRNAs indicated at 1:1 ratio. Cells were transfected with the siRNAs using JetPrime according to the manufacturer's manual and then harvested after 48 h. Control vector-transfected cells were used as controls for all the experiments. For SDS-PAGE, 20-40μg of protein samples were loaded on 4-12% bis-tris SDS gel (Invitrogen). The gel was transferred to nitrocellulose membrane (GE) using XCell II blot module (Invitrogen). Then, membranes were incubated with antibodies and exposed to film as described above. mtHSP70 (Abcam), α-Tubulin (Sigma), GFP (Roche), and cytosolic HSP70 (HSP70/HSP72, Enzo life) were used to probe the membrane. The western blot bands' intensity was measured using ImageJ software. For the cell culture experiments, cells were grown to 90% confluent and washed with PBS. Indicated concentrations of perhexiline were diluted in the cell growth media with serum and replaced in cell culture dishes. After 48 hours, cells were washed with PBS and harvested for following experiments.

[8] = tested on: aggregated PolyQ proteins (Q35::YFP); assay: Filter trap assay of aggregated PolyQ proteins in worms; format: in vivo, C. elegans; conditions: AM140 worms
Protocol: 100μg of protein samples were applied on to cellulose acetate membrane with 0.22 μm pore size (Schlechtes+Schule), assembled in vacuum slot blotter (Bio-Dot, Bio-Rad). Membrane was washed with 0.2% SDS five times on the blotter and subjected to antibody incubation for detecting aggregated protein retained on the membrane. Briefly, membrane was incubated with anti-GFP antibody (1:3000 dilution in 5% milk in PBS, Roche) overnight in a cold room. Membrane was washed with PBST (PBST with 0.05% Tween-20) for three times, then incubated with secondary antibody (donkey anti-mouse antibody conjugated with HRP, 1:5000 dilution in 5% milk in PBS, Jackson Immuno Research). Membranes were washed with PBST three times and exposed to film after applying ECL solutions (Pierce) to visualize the protein bands.
as §4

Structure (SMILES): CCCCCCCCCCCCC/C=C/[C@@H](O)[C@H](CO)NC(=O)CCCCCCCCCCCCCCCCCCC [C20 ceramide]
- hsp-6 RNAi-induced MCSR (hsp-16.2p::GFP) [1]: partially block
- UPRmt caused by cco-1 knockdown [2]: did not affect

Structure (SMILES): CCCCCCCCCCCCC/C=C/[C@@H](O)[C@H](CO)NC(=O)CCCCCCCCCCCCCCCCCCCCC [C22 ceramide]
- hsp-6 RNAi-induced MCSR (hsp-16.2p::GFP) [1]: completely inhibited
- UPRmt caused by cco-1 knockdown [2]: did not affect

Structure (SMILES): C1CCC(C(CC2CCCCN2)C2CCCCC2)CC1 (stereo not drawn) [perhexiline, 2-(2,2-dicyclohexylethyl)piperidine]
- polyglutamine protein aggregation [3]: reduced
- triglyceride levels [4]: increased
- fat accumulation (triglyceride content) [5]: increased
- cytosolic hsp-16.2 expression ([1]; perhexiline treated hsp-16.2p::GFP;CF512 reporter worms): specifically induced
- induction of UPRmt (hsp-6p::GFP, hsp-60p::GFP) ([2]; perhexiline treated reporter worms): moderately induced
- overall oxygen consumption rate [6]: did not further reduce
- expression of cytosolic HSP70 [7]: induce expression
- levels of aggregated PolyQ proteins [8]: decreased levels
